Measured values from US20230278972A1, “SUBSTITUTED HALOALKYL SULFONANILIDE HERBICIDES” (FMC Corporation, priority 2020, published 2023).

Experiments:
Type in all cases: in vivo
[1] = tested on: barnyardgrass (Echinochloa crus-galli); test: Test B1 flooded paddy test, barnyardgrass; conditions: 250 g ai/ha, Flood, applied to paddy water, 2-leaf stage, visually evaluated after 10 to 14 days
Source text: A dash (-) response means no test result.

[2] = tested on: goosegrass (Eleusine indica); test: Test A1 postemergence, goosegrass; conditions: for Goosegrass plant response rating: postemergence; for Plant response rating, Goosegrass: Postemergence
Procedure, shortened: (§1)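 Test compounds were formulated in a non-phytotoxic solvent mixture containing a surfactant. For preemergence, seeds sown in a loam soil–sand blend received a directed soil spray. For postemergence, potted plants in the same soil, 2 to 10 cm tall at the one- to two-leaf stage, were sprayed.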

[3] = tested on: Foxtail, Giant (giant foxtail, Setaria faberi); test: Test A1 postemergence, Foxtail, Giant; conditions: for Foxtail, Giant plant response rating: postemergence; for Plant response rating, Foxtail, Giant: Postemergence
Procedure, shortened: as §1

soybean (Glycine max) = test: Test A1 preemergence, soybean
Procedure, shortened: (§2)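 Herbicidal response was scored on plants treated either preemergence, by directed spray onto soil of a loam–sand blend after sowing, or postemergence on potted plants at the one- to two-leaf stage, 2–10 cm high. Test chemicals were carried in a non-phytotoxic solvent mix with surfactant.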

[4] = tested on: Ryegrass, Italian (Italian ryegrass, Lolium multiflorum); test: Test A1 preemergence, Ryegrass, Italian
Procedure, shortened: as §2

kochia (Bassia scoparia) = test: Test A1 preemergence, kochia
Procedure, shortened: as §2

corn (Zea mays) = test: Test A1 preemergence, corn
Procedure, shortened: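 Postemergence species (ragweed, Palmer pigweed, wild oat) were sprayed at one- to two-leaf stage, 2 to 10 cm tall. Corn was treated preemergence by directed soil spray. Both used a loam soil/sand blend and compounds in a non-phytotoxic solvent mixture with surfactant.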

[5] = 31 g ai/ha, 0 to 100 scale (0 no effect, 100 complete control)
[6] = 125 g ai/ha, 0 to 100 scale, 0 no effect, 100 complete control
[7] = 31 g ai/ha, 0 to 100 scale (0 no effect, 100 complete control), 10 days
[8] = 125 g ai/ha, 0 to 100 scale (0 no effect, 100 complete control), 10 days

Structure (SMILES) | Plant response rating, Barnyardgrass (0 to 100 scale, 0 is no effect, 100 is complete control) [1] | Goosegrass plant response rating [2, 5] | Plant response rating, Goosegrass ([2]; 125 g ai/ha, 0 to 100 scale) | Foxtail, Giant plant response rating [3, 5] | Plant response rating, Foxtail, Giant ([3]; 125 g ai/ha, 0 to 100 scale) | Plant response rating, Soybean (soybean (Glycine max); [5]) | Plant response rating, Soybean (soybean (Glycine max); [6]) | Plant response rating, Ryegrass, Italian [4, 5] | Plant response rating, Ryegrass, Italian [4, 6] | Plant response rating, Kochia (kochia (Bassia scoparia); [5]) | Plant response rating, Kochia (kochia (Bassia scoparia); [6]) | Plant response rating, Corn (corn (Zea mays); [5]) | Plant response rating, Corn (corn (Zea mays); [6]) | Plant response rating, Goosegrass [2, 7] | Plant response rating, Foxtail, Giant [3, 7] | Plant response rating, Goosegrass [2, 8] | Plant response rating, Foxtail, Giant [3, 8]
Cc1c(C(=O)N2C[C@@H](C)O[C@H](C)C2)cc(N(COC(=O)C(C)(C)C)S(=O)(=O)C(F)(F)F)c(C)c1C (relative stereo) [Compound 373] | 95 | 0 | 70 | 0 | 60 | 0 | 10 | 0 | 0 | 0 | 0 | 0 | 20 | – | – | – | –
CCOC(=O)N(c1cc(C(=O)N2C[C@@H](C)O[C@H](C)C2)c(C)c(C)c1C)S(=O)(=O)C(F)(F)F (relative stereo) [Compound 374] | 40 | 0 | 90 | 0 | 80 | 0 | 70 | 0 | 90 | 0 | 0 | 20 | 40 | – | – | – | –
Cc1c(NS(=O)(=O)C(F)(F)F)cc(C(=O)N2CCSCC2)c(C)c1C [Compound 283] | 15 | – | 30 | – | 90 | 0 | 50 | 0 | 0 | 30 | 90 | 0 | 10 | 10 | 80 | – | –
Cc1c(C(=O)N2CCSCC2)cc(N(COC(=O)C(C)(C)C)S(=O)(=O)C(F)(F)F)c(C)c1C [Compound 285] | 35 | – | 50 | – | 80 | 0 | 0 | 0 | 0 | 20 | 70 | 0 | 10 | 0 | 30 | – | –
CCOC(=O)N(c1cc(C(=O)N2CCSCC2)c(C)c(C)c1C)S(=O)(=O)C(F)(F)F [Compound 286] | 15 | – | 40 | – | 80 | 0 | 40 | 0 | 0 | 0 | 80 | 0 | 0 | 0 | 80 | – | –
COC1CCN(C(=O)c2cc(N(COC(=O)C(C)(C)C)S(=O)(=O)C(F)(F)F)c(C)c(C)c2C)CC1 [Compound 370] | 95 | 0 | 60 | 10 | 80 | 0 | 0 | 30 | 30 | 0 | 20 | 0 | 0 | – | – | – | –
C#CCN(C)C(=O)c1cc(N(COC(=O)C(C)(C)C)S(=O)(=O)C(F)(F)F)c(C)c(C)c1C [Compound 371] | 95 | 0 | 80 | 90 | 90 | 0 | 60 | 0 | 80 | 0 | 70 | 0 | 90 | – | – | – | –
Cc1cc(C)c(C2=NOC3OCCCC23)cc1NS(=O)(=O)C(F)(F)F (centres unmarked) [Compound 372] | 20 | 0 | 80 | 0 | 40 | 0 | 50 | 40 | 90 | 0 | 70 | 0 | 10 | – | – | – | –
Cc1ccc(C2=NOC3CCCC23)cc1NS(=O)(=O)C(F)(F)F (centres unmarked) [Compound 377] | 0 | 0 | 0 | 0 | 0 | 0 | 0 | 0 | 40 | 0 | 20 | 0 | 0 | – | – | – | –
CCOC(=O)N(c1cc(C2=NOC3CCCC23)c(CC)cc1C)S(=O)(=O)C(F)(F)F (centres unmarked) [Compound 379] | 95 | 10 | 60 | 0 | 10 | 0 | 0 | 0 | 40 | 0 | 10 | 0 | 0 | – | – | – | –
Cc1c(NS(=O)(=O)C(F)(F)F)cc(C2=NOC3(CCCC3)C2)c(C)c1C [Compound 380] | 98 | 0 | – | 10 | – | 20 | 50 | 60 | 100 | 0 | 60 | 0 | 30 | – | – | 30 | 80
Cc1c(C2=NOC3(CCCC3)C2)cc(N(COC(=O)C(C)(C)C)S(=O)(=O)C(F)(F)F)c(C)c1C [Compound 382] | 90 | 0 | – | 0 | – | 0 | 0 | 30 | 50 | 0 | 0 | 0 | 0 | – | – | 0 | 50
Cc1cc(C)c(N(COC(=O)C(C)(C)C)S(=O)(=O)C(F)(F)F)cc1C1=NOC(C(C)C)C1 (centres unmarked) [Compound 383] | 98 | 0 | – | 0 | – | 0 | 0 | 0 | 40 | 0 | 0 | 0 | 0 | – | – | 20 | 60
Cc1cc(C)c(N2CC3(CCCCC3)CC2=O)cc1NS(=O)(=O)C(F)(F)F [Compound 392] | 0 | 0 | – | 0 | – | 0 | 0 | 0 | 60 | 20 | 20 | 10 | 10 | – | – | 0 | 0
Cc1cc(Cl)c(NS(=O)(=O)C(F)(F)F)cc1N1CCC2(CCCCC2)C1=O [Compound 393] | 0 | 0 | – | 0 | – | 60 | 80 | 90 | 100 | 60 | 80 | 0 | 80 | – | – | 70 | 40
COC1CCC2(CC1)CCN(c1cc(NS(=O)(=O)C(F)(F)F)c(C)cc1C)C2=O (centres unmarked) [Compound 398] | 85 | 50 | – | 20 | – | 70 | 90 | 60 | 100 | 40 | 50 | 0 | 60 | – | – | 90 | 60
Cc1cc(C)c(N(S(=O)(=O)C(F)(F)F)S(=O)(=O)C(F)(F)F)cc1N1CCC2(CCC(C(F)(F)F)CC2)C1=O (centres unmarked) [Compound 399] | 0 | 40 | – | 10 | – | 30 | 40 | 40 | 90 | 0 | 50 | 0 | 0 | – | – | 90 | 60
